Assay results: patent US20180353445A1, “METHODS AND COMPOSITIONS RELATING TO PROTEASOME INHIBITOR RESISTANCE” (Whitehead Institute for Biomedical Research, priority 2017, published 2018)
Entries after “also recorded” stand apart in the source; their conditions may differ.

Legend:
cancer cell lines (GDSC) = test: Genomics of Drug Sensitivity in Cancer (GDSC) data analysis, IC50 of bortezomib and MG132 vs 19S expression / sigma score; type: cell-based, human; details: GDSC database
Description: In some aspects, whether a cancer cell is considered resistant or sensitive to a particular agent may be determined by comparing the IC50 of the agent for the cancer cell with the IC50 of the agent as measured for each cell line in a panel of diverse cancer cell lines. Cancer cells for which the agent has an IC50 in the 10th percentile of IC50 values determined for the agent on a diverse panel of cancer cell lines may be considered sensitive, while cancer cells for which the agent has an IC50 in the 90th percentile of IC50 values determined for the agent on a diverse panel of cancer cell lines may be considered resistant to the agent.
We asked if this might correlate with changes in 19S subunit expression. We analyzed the Genomics of Drug Sensitivity in Cancer (GDSC) database, a public resource of transcriptional data and drug responsiveness collected from a spectrum of human cancer cell lines with diverse tissue origins and diverse oncogenic lesions (Garnett et al., 2012). […]
Further details of methods used in GDSC dataset analysis: Gene expression and drug sensitivity data was downloaded from the World Wide Web at subdomain cancerrxgene.org. […] For each proteasomal subunit gene, a-score was calculated for each cell line. […] P-values were calculated by t-test, comparing the logEC50s between the 3 sigma and not 3 sigma.

[1] = target: β5-subunit of the proteasome (Homo sapiens, UniProt P28074); details: cited from earlier work
cysteine desulfurase = target: T1, cysteine desulfurase (Homo sapiens, UniProt Q9Y697); test: Cysteine desulfurase activity assay; type: biochemical
T1 construct: made in house
T1 sequence (Q9Y697 56-457): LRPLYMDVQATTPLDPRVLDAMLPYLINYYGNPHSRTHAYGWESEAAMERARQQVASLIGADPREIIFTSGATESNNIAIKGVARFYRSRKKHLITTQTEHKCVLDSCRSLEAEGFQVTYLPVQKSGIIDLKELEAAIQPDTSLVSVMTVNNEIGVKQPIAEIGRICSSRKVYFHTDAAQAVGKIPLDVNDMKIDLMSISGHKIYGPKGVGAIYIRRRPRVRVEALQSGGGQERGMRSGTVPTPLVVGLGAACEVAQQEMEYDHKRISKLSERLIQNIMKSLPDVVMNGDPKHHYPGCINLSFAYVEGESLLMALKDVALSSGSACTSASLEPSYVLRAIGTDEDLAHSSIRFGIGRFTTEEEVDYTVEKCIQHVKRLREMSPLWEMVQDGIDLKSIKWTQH
T1 sequence (Q9HD34 whole entry, further chain): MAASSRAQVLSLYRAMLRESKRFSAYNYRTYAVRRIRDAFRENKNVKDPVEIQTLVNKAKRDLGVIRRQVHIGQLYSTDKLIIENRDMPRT
T1 sequence (P0A6A8 2-78, further chain): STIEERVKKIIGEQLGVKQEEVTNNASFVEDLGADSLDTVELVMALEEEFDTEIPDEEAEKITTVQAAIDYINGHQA
Experimental: The in vitro Fe—S cluster assembly was carried out with reduced FDX1 as the reducing agent and detected by following the increase of absorbance at 456 tun following the addition of either of 5× (green) or 10× (yellow, both relative to FDX1) compound-1. […] Fe—S formation was monitored by following the increase of absorbance at 456 nm. […] Cysteine desulfurase activity assay carried out with the indicated concentrations of elesclomol.

T47D cells = test: Elesclomol combined with proteasome inhibitors, control and PSMD2 KD (Lo19S) T47D cells, CellTiter-Glo; type: cell-based, human
Experimental: FIGS. 38A-38D: Elesclomol synergizes with proteasome inhibitors. Validation of drug screen results. Control and PSMD2 knockdown cells were exposed to the indicated concentrations of either ixazomib (FIG. 38A) or elesclomol (FIG. 38B). Control (FIG. 38C) or PSMD2 KD (FIG. 38D) cells were treated with increasing concentrations of ixa.zomib in the presence or absence of the indicated concentrations of elesclomol. Cell viability was examined 72 hours after drug application using CellTiter-Glo.
(FIG. 39B) Cells with the 19S PSMD2 subunit KD were treated with indicated concentration of ixazomib or with indicated concentrations of ixazomib with 4:1 ratio of ixazomib to elesclomol (i,e, the concentration of elesclomol is 4× smaller than the indicated concentration of ixazomib). (FIG. 39C) The experiment described in (FIGS. 39A-39B).
FIGS. 50A-50D: Elesclomol targets the Lo19S state to block proteasome inhibitor resistance. […] The relative viability of the Lo19S versus control cells was calculated for replica experiments and the log2 of the ratio is plotted. […] The relative viability of the respiring cells (Hi-OXPHOS) (gal) versus the control cells (glu) was calculated for replica experiments and the log2 of the ratio is plotted. Specific compounds are annotated. […] Plotted are the mean±−SD of at least three replicas and the calculated EC50s. […]

MCF7 and HEK293 cells = test: Cell viability with glucose or galactose as the carbon source; type: cell-based, human; details: 10 mM glucose or 10 mM galactose
Experimental: Cells were treated with increasing concentrations of elesclomol in the presence of either Glucose or Galactose as the carbon source (FIG. 40A). The presence of Galactose will induce a mitochondrial dependent metabolism (FIGS. 40B-40C, Gohil et al., Nature Biotechnology 28, 249-255 (2010)).
The sensitivity of cells to different chemical isoforms of elesclomol was also assessed. […] Removing even one substantially impairs the ability of the molecule to induce toxicity (FIG. 41B).
Cell culture methods—147D, Lo19S T47D, K562 and 293T-HS cells were cultured in RPMI-1640 medium supplemented with 10% fetal bovine serum; HEK293, HEK293T and MCF-7 cells were cultured in Dulbecco's modified Eagle's medium supplemented with 10% fetal bovine serum. For the glucose, galactose experiments media lacking glucose was supplemented with dialyzed serum and either 10 mM Glucose or 10 mM galactose.
Cell viability—where indicated relative cell number following different drug treatment was conducted by plating cells at 1000 cells/well in 384 well plates. Indicated concentrations of compounds were added 24 hour after plating at least in triplicate for each condition. Viability was measured 72 hours after drug addition using cell titer-glo (Promega) according to manufactures protocol. […]

[2] = system: MCF7, HEK293 and T47D cells; test: Viability of cells grown in glucose (glycolytic) vs galactose (Hi-OXPHOS); type: cell-based, human
Experimental: FIGS. 40A-40D: Cancer cell metabolism alters sensitivity to elesclomol.
FIGS. 41A-41B: Cancer cell metabolism alters sensitivity to elesclomol.
FIGS. 51A-51D: Elesclomol preferentially targets cells in the Hi-OXPHOS state. […] The relative cell growth (color coded) was analyzed 72 hours post compound addition. Plotted are the mean SD of at least three replicas and the calculated EC50s (FIGS. 51B-51C). […] Reactive groups are indicated with a colored circle.
FIGS. 57A-57C: Elesclomol preferentially targets cells in the Hi-OXPHOS state. […] Analogs named compound 1-6. […] Plotted are the mean SD of at least three replicas and the calculated EC50s (FIG. 57A and FIG. 57C).

CC(C)C[C@H](NC(=O)[C@H](Cc1ccccc1)NC(=O)c1cnccn1)B(O)O [bortezomib]
average IC50 value in 3-Sigma cell lines vs all other lines (cancer cell lines (GDSC)): considerably higher
potency of inhibition of the β5-subunit [1]: low nanomolar potency

CN(NC(=O)CC(=O)NN(C)C(=S)c1ccccc1)C(=S)c1ccccc1 [elesclomol]
activity of cysteine desulfurase (cysteine desulfurase): does not inhibit
combination effect with proteasome inhibitors (T47D cells): synergizes
sensitivity of cells in galactose (mitochondrial metabolism, Hi-OXPHOS) versus glucose (glycolytic) (MCF7 and HEK293 cells): much more sensitive; also recorded: toxicity is enhanced
activity against cells in the HI-OXPHOS state [2]: preferential activity
toxicity when grown in the presence of Galactose [2]: toxicity is enhanced
sensitivity of cells utilizing mitochondria metabolism vs glycolytic cells ([2]; MCF7 and HEK293 cells): much more sensitive
